These results are taken from publication PMC5464637, “Identification of key amino acid residues in the hTGR5–nomilin interaction and construction of its binding model” (PLoS ONE, 2017).

Broadly, the EC50 is the midpoint of the concentration-response curve. Low readings indicate greater potency, high ones weaker potency.

One assay deals with T1, hTGR5-WT (Homo sapiens, UniProt Q8TDU6).
T1 construct: expressed in transfected cells; host or cells: HEK293
T1 sequence (Q8TDU6 1-330): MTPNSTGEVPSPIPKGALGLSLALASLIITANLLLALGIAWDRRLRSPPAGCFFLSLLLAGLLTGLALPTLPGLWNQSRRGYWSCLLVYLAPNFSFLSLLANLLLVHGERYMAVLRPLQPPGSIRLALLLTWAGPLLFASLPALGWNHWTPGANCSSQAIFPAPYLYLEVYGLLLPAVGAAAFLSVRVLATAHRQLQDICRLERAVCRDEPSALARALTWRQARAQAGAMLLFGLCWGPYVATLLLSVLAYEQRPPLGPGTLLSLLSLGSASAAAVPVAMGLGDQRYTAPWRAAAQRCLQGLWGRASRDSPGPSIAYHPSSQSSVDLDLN
Kind of assay: CRE-luciferase reporter assay in HEK293 cells transfected with hTGR5-WT. The following applies: for agonist activity (CRE-luciferase response): hTGR5-WT, 100 μM, 5 h, HEK293. It counts as cell-based. The procedure: (§1) HEK293 cells were plated in 12-well plates at a density of 1.0 × 10^5 cells/well. Twenty hours later, the cells were transfected with pCRE-Luc, p3×FLAG-CMV-TGR5, and pEF-β-galactosidase (100 ng/well each) using the calcium phosphate method. After 4 h of incubation, the medium was replaced with DMEM, which contained 10% dextran charcoal-stripped FBS. Twenty-four hours after transfection, the cells were treated with the previously mentioned compounds and control vehicle (DMSO). After 5 h, the cells were then incubated with lysis buffer (25 mM Tris-phosphate [pH 7.8], 2 mM dithiothreitol [DTT], 2 mM trans-1,2-Diaminocyclohexane-N,N,N, N′-tetraacetic acid [CDTA], 10% glycerol, and 1% Triton X-100) on ice, and the luciferase and β-galactosidase activity were measured. The luciferase activity values were divided by those of β-galactosidase to obtain normalized luciferase values.
(Reporter assays use an easily measured gene product as a stand-in for the process of interest.)

The next assay concerns hTGR5-Q77A/R80A/Y89A. The following applies: 100 μM, 5 h, HEK293. The procedure:
as §1
(PDF) Click here for additional data file.

A further assay deals with T2, mTGR5-R76Q/Q79R/H88Y (Mus musculus, UniProt Q80SS6, H88Y/Q79R/R76Q).
T2 sequence (Q80SS6 1-329 R76Q/Q79R/H88Y): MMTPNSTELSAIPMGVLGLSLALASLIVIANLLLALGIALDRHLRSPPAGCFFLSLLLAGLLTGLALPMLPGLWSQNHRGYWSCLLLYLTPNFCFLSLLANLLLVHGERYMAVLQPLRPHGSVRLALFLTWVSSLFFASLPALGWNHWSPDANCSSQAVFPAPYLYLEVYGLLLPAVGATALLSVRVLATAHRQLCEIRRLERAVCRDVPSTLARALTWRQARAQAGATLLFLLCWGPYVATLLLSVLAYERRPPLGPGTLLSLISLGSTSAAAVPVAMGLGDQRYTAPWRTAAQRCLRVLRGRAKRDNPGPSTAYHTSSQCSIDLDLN
In words: CRE-luciferase reporter assay in HEK293 cells transfected with mouse-to-human triple mutant TGR5. The following applies: for agonist activity (CRE-luciferase response): mTGR5-R76Q/Q79R/H88Y, HEK293.

Another assay deals with T3, mTGR5-WT (Mus musculus, UniProt Q80SS6).
T3 construct: expressed in transfected cells; host or cells: HEK293
T3 sequence (Q80SS6 1-329): T2 sequence (Q80SS6 1-329 R76Q/Q79R/H88Y) with Q76R, R79Q, Y88H
In words: CRE-luciferase reporter assay in HEK293 cells transfected with mTGR5-WT. It counts as cell-based. The following applies: for agonist activity (CRE-luciferase response): 100 μM, 5 h, HEK293; for EC50: CRE-luciferase dose-response, HEK293, n = 3. The procedure: as §1

For a further assay, the target named is T4, hTGR5-Q77R/R80Q/Y89H (Homo sapiens, UniProt Q8TDU6, Q77R/R80Q/Y89H).
T4 sequence (Q8TDU6 1-330 Q77R/R80Q/Y89H): T1 sequence (Q8TDU6 1-330) with Q77R, R80Q, Y89H
Kind of assay: CRE-luciferase reporter assay in HEK293 cells transfected with human-to-mouse triple mutant TGR5. The following applies: for EC50: CRE-luciferase dose-response, HEK293, n = 3; for agonist activity (CRE-luciferase response): HEK293.

Residue numbers refer to the chain shown, from its start.

Consider `CC1(C)O[C@H]2CC(=O)OC[C@]23[C@H]2CC[C@@]4(C)[C@H](c5ccoc5)OC(=O)[C@H]5O[C@]54[C@]2(C)C(=O)C[C@@H]13` [limonin], for which the “agonist activity (CRE-luciferase response)” value (“agonist activity” below) on hTGR5-WT is recorded as “very weak hTGR5 agonist activity”.
`CC(=O)O[C@H]1CC(=O)OC(C)(C)[C@@H]2CC(=O)[C@]3(C)[C@H](CC[C@@]4(C)[C@H](c5ccoc5)OC(=O)[C@H]5O[C@]543)[C@@]12C` [nomilin]: the “agonist activity” value is recorded as “very weak nomilin response relative to WT-hTGR5” in the assay on hTGR5-Q77A/R80A/Y89A, “strong nomilin response equal to that of hTGR5-WT” on mTGR5-R76Q/Q79R/H88Y, “considerably weaker agonist activity for mTGR5 than it does for hTGR5” at mTGR5-WT and “very weak nomilin response identical to that of mTGR5” on hTGR5-Q77R/R80Q/Y89H. Further, the EC50 on mTGR5-R76Q/Q79R/H88Y was 46.2 µM; on mTGR5-WT, “undetectable”; on hTGR5-Q77R/R80Q/Y89H, “undetectable”; at hTGR5-WT, 23.6 µM.
In the case of `CC1(C)OC(=O)C=C[C@]2(C)[C@H]3CC[C@@]4(C)[C@H](c5ccoc5)OC(=O)[C@H]5O[C@]54[C@]3(C)C(=O)C[C@@H]12` [obacunone], the EC50 at mTGR5-R76Q/Q79R/H88Y is 165 µM; at mTGR5-WT, “undetectable”; on hTGR5-Q77R/R80Q/Y89H, “undetectable”; on hTGR5-WT it was 147 µM. The “agonist activity” value is listed as “equally intense obacunone responses” on mTGR5-R76Q/Q79R/H88Y, “very weak obacunone response” on mTGR5-WT, “very weak obacunone response” on hTGR5-Q77R/R80Q/Y89H and “stronger agonist activity for hTGR5 than it does for mTGR5” at hTGR5-WT.
